From patent publication EP2068894B1, “USE OF CIS-RHENIUM (III) DI[…] FOR POTENTIATING THE A[…] OF PLATINIUM COMPLEXES” (SOCIETE DE CO[…] RECHERCHES THERAPEUTIQUES, priority 2006, dated 2007)

Key:
Type in all cases: in vivo, Wistar rats
RBC = assay: Morphological forms of red blood cells in blood of tumor-bearing rats; settings: day 21 after tumor cells inoculation; for Damaged RBC / Discocytes / Echinocytes: morphological forms of RBC in blood
Description: (§1) Wistar rats weighting 100-120 g were inoculated by tumor carcinoma Guerink (T8) cells (Experimental Oncology, 2003, Vol. 25, pp64-68). The cells were taken in the Institute of Oncology and Experimental Pathology by R.E.Kavetskiy (Kiev). The single intraperitoneal administration of Cisplatin at the dose of 8 mg/kg was made on the 9 day after the tumor inoculation according to the method disclosed by Taylor S.K. in Medical Hypothesis 2003; 60; n°1, pp 89-93. The intraperitoneal administration of the Re2 at the dose of 7µM/kg according to the schema of antioxidant therapy [Meerson F.Z. et al. Pat. Physiol. and Exp. Therap.(Rus) 1983;N5:25-9] in liposome forms [Sktemenko et al. Ukr.Biokhim.Journal (Ukr) 2002;74,N°6:38-43] began on the 3 day after the inoculation of the tumor cells and was repeated every 2 days until day 21. Body weights were measured from day 2 after tumor inoculation, the volume of tumors were assessed from the day 7. On the day 21 animals were sacrified under chlorophormium anesthesia and the tumors were isolated and weighted. Concentrations of hemoglobin (Hb) and quantity of red blood cells (RBC) were measured according to the method described by Chevary et al. in Laboratornoe delo (Rus) 1991;N°10:9-13
(§2) Four groups of 15 animals in each were compared: control group; group with introduction of cisplatin; group with introduction of Re2; and group with introduction of cisplatin together with Re2. Wilcoxon non parametric tests were used to compare the tumor volumes according to the absence of treatment and each group of treatment or between 2 treated groups. Growth of the tumors in control group was very rapid and reached […] and occupied approximately 1/3 of the animal weight. Dynamics of tumor growth is represented on the Figure 1.

[1] = Hemoglobin concentration in blood of tumor-bearing rats; settings: for concentration of Hb: blood, day 21 after tumor cells inoculation, cisplatin 8 mg/kg i.p. day 9, Re2 7µM/kg i.p. every 2 days from day 3
Description: as §1, §2

[2] = system: tumor carcinoma Guerink (T8) cells; assay: Tumor growth in rats inoculated with tumor carcinoma Guerink (T8) cells; settings: for Weight of isolated tumors: day 21 after tumor cells inoculation, cisplatin 8 mg/kg i.p. single on day 9, Re2 7µM/kg i.p. in liposome forms every 2 days from day 3 to day 21; for tumor growth / measured tumor volumes: in comparison to control group, volumes assessed from day 7
Description: as §1, §2

N.N.[Cl][Pt][Cl] [cisplatin]
Damaged RBC (RBC): 28.65 ± 3.98% | Discocytes (RBC): 46.36 ± 3.18% | Echinocytes (RBC): 24.99 ± 3.84% | concentration of Hb [1]: 129.49 ± 12.43 g/L | hemoglobin, result in words ([1]; in comparison to control group, day 21): significant increase in hemoglobin | Weight of isolated tumors [2]: 9.88 ± 9.90 g | tumor growth / measured tumor volumes [2]: significant decrease in measured tumor volumes

cis-[Re2(AdCOO)2Cl4].2CH3CN
morphological picture of RBC, result in words (RBC): supported quantities of discocytes and echinocytes on a rather high level | Damaged RBC (RBC): 21.53 ± 2.34% | Discocytes (RBC): 56.33 ± 4.32% | Echinocytes (RBC): 22.14 ± 2.16% | concentration of Hb [1]: 72.02 ± 11.12 g/L | Weight of isolated tumors [2]: 38.27 ± 16.77 g | tumor growth / measured tumor volumes [2]: did not prevent tumor growth but caused a little delay in progression of growth
